`COc1ccc(-c2cc(Cl)c3cc(O)ccc3c2)cc1` yielded a melting point of 116 to 118 °C.

On to `CC(C)(C)OC(=O)NCCNC(=O)c1ncsc1-c1ccccc1`, for which the melting point was in the range of 139 to 140 °C.

Take `CC(=O)Nc1ccc(C(C)=O)cc1CN(C)C`: the melting point lay in the range of 68 to 72 °C.

`O=S1(=O)Cc2ccc(Cl)cc2C(c2cccc(F)c2)=NN1` gave a melting point of 195 to 198 °C.

Compound `CC(Oc1ccc2nc(NC(=O)NCCN3CCOCC3)sc2c1)c1c(F)ccc(Cl)c1Cl` (stereo not given) returned a melting point of 200 °C.

`COC(=O)N1CC(C(N)=O)C(c2ccc(OC)c(OC3CCCC3)c2)C1` (stereo not given) showed a melting point of 130 to 132 °C.

In turn, `CC(C)(C)c1ccc(C(CO)NC(=O)c2c(F)c(F)cc(F)c2F)cc1` (stereo not given) showed a melting point of 158 to 160 °C.

For the compound `CSc1ccc(CSc2nnc(-c3ccc4c(c3)CCO4)o2)cc1C(F)(F)F`, the melting point lay in the range of 108 to 109 °C.

`CCCCCCc1ccc(NC2=NCCS2)cc1` showed a melting point of 77 to 79 °C.

Regarding `Cc1nc2ccc(Cl)cc2c(-c2ccc(F)cc2)c1CO`, the melting point fell in the range of 173 to 175 °C.

As for `COCC(=O)OCn1cc(C#N)c(-c2cccc(Cl)c2Cl)c1`, the melting point fell in the range of 72 to 75 °C.

For the compound `CC(C)(C)c1ccc2c(c1)ncn2-c1cccc(Br)n1`, the melting point fell in the range of 98 to 100 °C.

Compound `Cc1oc(-c2ccccc2)nc1COc1ccc(CCCCCBr)cc1` yielded a melting point of 58 to 59 °C.

`COc1cccc(N2CC(=O)N(c3ccc(S(N)(=O)=O)cc3Cl)C2)c1` registered a melting point of 200 to 203 °C.

`COc1ccc(F)c2c(O)c(C=O)ccc12` returned a melting point of 156 to 158 °C.

For `Cc1nc2ccc(OCCCN3CCC(OC(c4ccccc4)c4ccccc4)CC3)nn2n1`, the melting point lay in the range of 134 to 136 °C.

In the case of `COc1cc2c(c3c1OC(C)(C)C3)C(c1ccc(=O)n(Cc3ccc(C(N)=O)cc3)c1)=NC(C)(C)C2`, the melting point lay in the range of 262 to 266 °C.

`CC(=O)OC/C(=C(\C(=O)N(C)CC(C)(C)SN=O)c1ccc(F)cc1)c1ccc(S(C)(=O)=O)cc1`: the melting point fell in the range of 37 to 38 °C.

With `CN1C(O)=C(C(=O)Nc2ccc(Br)cc2)c2cscc2S1(=O)=O`, the melting point lay within 138 to 140 °C.

The compound `COc1ccc2c(c1)cc1cnc(Nc3ccc(N4CCOCC4)cc3OC)nn12` returned a melting point of 152 to 164 °C.

Take `CN(C)CCNC1=CC(=O)c2nc(-c3ccc4ccccc4c3)sc2C1=O`: the melting point fell in the range of 167 to 168 °C.

Consider `COc1ccc(-c2ccccc2)cc1N1CCN(C(=O)Nc2cc3ccccc3nc2OC)CC1`, for which the melting point fell in the range of 122 to 123 °C.

Consider `CC(=O)OCC(CCn1cnc2nc(N)ncc21)COC(C)=O`, for which the melting point is 137 to 139 °C.

On to `Oc1ccc(Nc2cc(-c3cn(C(c4ccccc4)(c4ccccc4)c4ccccc4)nc3-c3ccccn3)ccn2)cc1`, for which the melting point stood at 198 °C.

On to `Clc1ccc2c(Nc3ccccc3)ncnc2c1`, for which the melting point is 215 to 217 °C.

Compound `Cc1ccc(CSc2nc(C)n(C)c(=O)c2Br)cc1` registered a melting point of 73 to 74 °C.

Turning to `CC(=O)SCCC(=O)N1c2ccccc2CCC1C(=O)O` (stereo not given), the melting point was 89 to 91 °C.

For the compound `COc1ccc(-c2ccc3cc(OC)ccc3c2)cc1`, the melting point amounted to 190 °C.

In turn, `COC(=O)c1nn(-c2ccccc2)c2c1CCc1cc(Cl)ccc1-2` registered a melting point of 190 to 192 °C.

With `CCOCc1nc2c(N)nc3ccccc3c2n1CC1CCN(C)O1` (stereo not given), the melting point lay in the range of 173 to 174 °C.

For `CC#CCCn1ncc2c(OCC)c(C(=O)OCC)cnc21`, the melting point was 93 to 95 °C.

`CC(C)(C)NC(=O)Nc1nc2nc(NC3CCOCC3)ncc2cc1Oc1ccc(F)cc1F`: the melting point fell in the range of 195 to 201 °C.

`c1ccc2c(c1)C[C@H]1Nc3ccccc3[C@@H]21` (relative stereo) registered a melting point of 85 to 86 °C.

`NC(=O)NCc1ccc(Cl)cc1` showed a melting point of 186 to 189 °C.

`COc1ccc2c(c1)C(CCCCNC(C)=O)=CCC2` showed a melting point of 79 to 81 °C.

One may read the melting point as the temperature of the solid-liquid transition.
